Test results: ChEMBL document CHEMBL4052738, “Design and synthesis of 4-morpholino-6-(1,2,3,6-tetrahydropyridin-4-yl)-N-(3,4,5-trimethoxyphenyl)-1,3,5-triazin-2-amine analogues as tubulin polymerization inhibitors” (Bioorg Med Chem Lett, 2017)
Activity calls are given as the source filed them. No cut-off for these calls is given here.

What was measured:
[1] = tested on: MCF7; test: Antiproliferative activity against human MCF7 cells after 48 hrs by sulforhodamine B assay; format: functional, cell-based; conditions: MCF7, 48 h
[2] = tested on: A549; test: Antiproliferative activity against human A549 cells after 48 hrs by sulforhodamine B assay; format: functional, cell-based; conditions: A549, 48 h
[3] = tested on: HeLa; test: Antiproliferative activity against human HeLa cells after 48 hrs by sulforhodamine B assay; format: functional, cell-based
[4] = tested on: HepG2; test: Antiproliferative activity against human HepG2 cells after 48 hrs by sulforhodamine B assay; format: functional, cell-based; conditions: HepG2, 48 h
[5] = tested on: HeLa; test: Induction of apoptosis in human HeLa cells assessed as increase in cyclin-B1 levels at 1 mM after 24 hrs by immunoblot analysis; format: functional, cell-based
[6] = tested on: HeLa; test: Inhibition of microtubule polymerization in human HeLa cells assessed as cell rounding at 1 mM after 24 hrs by DAPI staining-based immunofluorescence assay
[7] = tested on: HeLa; test: Inhibition of tubulin polymerization in human HeLa cells assessed as increase in soluble tubulin fraction at 1 mM after 24 hrs by immunoblot analysis; format: cell-based
[8] = Inhibition of porcine tubulin polymerization after 1 hr in presence of GTP; design: species or system Sus scrofa
[9] = tested on: HeLa; test: Inhibition of microtubule polymerization in human HeLa cells assessed as spindle fibres in nucleus at 1 mM after 24 hrs by DAPI staining-based immunofluorescence assay; format: cell-based
[10] = tested on: HeLa; test: Induction of apoptosis in human HeLa cells assessed as increase in cyclin-B1 levels at 10 mM after 24 hrs by immunoblot analysis; format: functional, cell-based
[11] = tested on: HeLa; test: Inhibition of microtubule polymerization in human HeLa cells assessed as cell rounding at 10 mM after 24 hrs by DAPI staining-based immunofluorescence assay
[12] = tested on: HeLa; test: Inhibition of tubulin polymerization in human HeLa cells assessed as increase in soluble tubulin fraction at 10 mM after 24 hrs by immunoblot analysis; format: cell-based
[13] = tested on: HeLa; test: Inhibition of microtubule polymerization in human HeLa cells assessed as spindle fibres in nucleus at 10 mM after 24 hrs by DAPI staining-based immunofluorescence assay; format: cell-based

Row | SMILES | IC50 [1] | IC50 [2] | IC50 [3] | IC50 [4] | further results
1 | COc1cc(Nc2nc(C3=CCN(C(=O)N4CCOCC4)CC3)nc(N3CCOCC3)n2)cc(OC)c1OC | 38.2 µM | 32 µM | 45.2 µM | 29 µM | 
2 | COc1cc(Nc2nc(C3=CCN(C(=O)Nc4ccc(F)cc4)CC3)nc(N3CCOCC3)n2)cc(OC)c1OC | 25.9 µM | 45.7 µM | 40.1 µM | 29.1 µM | 
3 | COc1cc(Nc2nc(C3=CCN(C(=O)c4ccc(Br)cc4)CC3)nc(N3CCOCC3)n2)cc(OC)c1OC | 39.8 µM | 34 µM | 40.4 µM | 35.7 µM | 
4 | CCN1CCN(C(=O)N2CC=C(c3nc(Nc4cc(OC)c(OC)c(OC)c4)nc(N4CCOCC4)n3)CC2)CC1 | 30 µM | 43.2 µM | 39.5 µM | 45.9 µM | 
5 | COc1cc(Nc2nc(C3=CCN(C(=O)N4CCCCC4)CC3)nc(N3CCOCC3)n2)cc(OC)c1OC | 40.5 µM | 30.8 µM | 34 µM | 41.7 µM | 
6 | COc1ccc(C(=O)N2CC=C(c3nc(Nc4cc(OC)c(OC)c(OC)c4)nc(N4CCOCC4)n3)CC2)cc1 | 32.1 µM | 33.3 µM | 43 µM | 30.6 µM | 
7 | COc1cc(Nc2nc(C3=CCN(C(=O)c4ccc(Br)cc4O)CC3)nc(N3CCOCC3)n2)cc(OC)c1OC | 28 µM | 45.9 µM | 43.9 µM | 38.9 µM | 
8 | COc1cc(Nc2nc(C3=CCN(S(=O)(=O)c4ccc([N+](=O)[O-])cc4)CC3)nc(N3CCOCC3)n2)cc(OC)c1OC | 40.3 µM | 34.6 µM | 32 µM | 43.2 µM | 
9 | COc1cc(Nc2nc(C3=CCN(S(=O)(=O)c4ccc(F)cc4)CC3)nc(N3CCOCC3)n2)cc(OC)c1OC | 29.6 µM | 45.6 µM | 50.6 µM | 30 µM | 
10 | COc1cc(Nc2nc(C3=CCN(S(=O)(=O)c4ccc(C(F)(F)F)cc4)CC3)nc(N3CCOCC3)n2)cc(OC)c1OC | 40.5 µM | 29.9 µM | 32.1 µM | 27.2 µM | 
11 | COc1cc(Nc2nc(C3=CCN(C(=O)c4ccncc4)CC3)nc(N3CCOCC3)n2)cc(OC)c1OC | 32.1 µM | 48.9 µM | 50.6 µM | 39.5 µM | 
12 | COc1cc(Nc2nc(C3=CCN(C(=O)c4cccnc4Cl)CC3)nc(N3CCOCC3)n2)cc(OC)c1OC | 30.2 µM | 42.9 µM | 41 µM | 45 µM | 
13 | COc1cc(Nc2nc(C3=CCN(C(=O)N4CCN(c5ccc(C)cc5)CC4)CC3)nc(N3CCOCC3)n2)cc(OC)c1OC | 49.1 µM | 29.6 µM | 39.6 µM | 40 µM | 
14 | COc1cc(Nc2nc(C3=CCN(S(=O)(=O)c4ccc(Cl)cc4)CC3)nc(N3CCOCC3)n2)cc(OC)c1OC | 30.6 µM | 40.8 µM | 51 µM | 49.3 µM | 
15 | COc1cc(Nc2nc(C3=CCN(C(=O)Nc4ccncc4)CC3)nc(N3CCOCC3)n2)cc(OC)c1OC | 38.5 µM | 32 µM | 34 µM | 50 µM | 
16 | COc1cc(Nc2nc(C3=CCN(S(C)(=O)=O)CC3)nc(N3CCOCC3)n2)cc(OC)c1OC | 28.9 µM | 39 µM | 32 µM | 28.5 µM | 
17 | COc1cc(Nc2nc(C3=CCN(S(=O)(=O)c4ccc(C)cc4)CC3)nc(N3CCOCC3)n2)cc(OC)c1OC | 42.1 µM | 40.3 µM | 45.7 µM | 25 µM | 
18 | COc1cc(Nc2nc(C3=CCN(C(=O)c4cnccn4)CC3)nc(N3CCOCC3)n2)cc(OC)c1OC | 39.4 µM | 41.9 µM | 48.3 µM | 40 µM | 
19 | COc1cc(Nc2nc(C3=CCN(C(=O)N4CCCC4)CC3)nc(N3CCOCC3)n2)cc(OC)c1OC | 34 µM | 43.3 µM | 29.4 µM | 38.8 µM | 
20 | COc1cc(Nc2nc(C3=CCN(C(=O)c4ccc(Cl)cc4)CC3)nc(N3CCOCC3)n2)cc(OC)c1OC | 38.3 µM | 43.5 µM | 34.8 µM | 40.3 µM | 

Row | SMILES | IC50 [1] | IC50 [2] | IC50 [3] | IC50 [4] | further results
21 | COc1cc(Nc2nc(C3=CCN(S(=O)(=O)c4ccc(Br)s4)CC3)nc(N3CCOCC3)n2)cc(OC)c1OC | 30.6 µM | 29 µM | 39.6 µM | 28 µM | 
22 | COc1cc(Nc2nc(C3=CCN(C(=O)Nc4ccc(F)c(F)c4)CC3)nc(N3CCOCC3)n2)cc(OC)c1OC | 30.6 µM | 51 µM | 30.4 µM | 34.5 µM | 
23 | COc1cc(Nc2nc(C3=CCN(S(=O)(=O)c4ccc(C(C)(C)C)cc4)CC3)nc(N3CCOCC3)n2)cc(OC)c1OC | 40.4 µM | 33.5 µM | 50.4 µM | 48.4 µM | 
24 | COc1cc(Nc2nc(C3=CCN(C(=O)C(F)(F)F)CC3)nc(N3CCOCC3)n2)cc(OC)c1OC | 48.4 µM | 28.6 µM | 43.1 µM | 50.6 µM | 
25 | COc1cc(Nc2nc(C3=CCN(C(=O)CC#N)CC3)nc(N3CCOCC3)n2)cc(OC)c1OC | 40.4 µM | 42 µM | 34.2 µM | 29.8 µM | 
26 | COc1cc(Nc2nc(C3=CCN(C(=O)Nc4ccc(Cl)cc4)CC3)nc(N3CCOCC3)n2)cc(OC)c1OC | 29 µM | 35.9 µM | 30.7 µM | 34.9 µM | 
27 | COc1ccc(S(=O)(=O)N2CC=C(c3nc(Nc4cc(OC)c(OC)c(OC)c4)nc(N4CCOCC4)n3)CC2)cc1 | 50.3 µM | 34.9 µM | 47.8 µM | 30.6 µM | 
28 | COc1cc(Nc2nc(C3=CCN(S(=O)(=O)c4ccccc4[N+](=O)[O-])CC3)nc(N3CCOCC3)n2)cc(OC)c1OC | 50.5 µM | 33.5 µM | 32 µM | 51 µM | 
29 | COc1cc(Nc2nc(C3=CCN(C(C)=O)CC3)nc(N3CCOCC3)n2)cc(OC)c1OC | 40.2 µM | 49 µM | 45.7 µM | 50.6 µM | 
30 | COc1ccc(NC(=O)N2CC=C(c3nc(Nc4cc(OC)c(OC)c(OC)c4)nc(N4CCOCC4)n3)CC2)cc1 | 26.4 µM | 45.9 µM | 40.5 µM | 43.6 µM | 
31 | COc1cc(Nc2nc(C3=CCN(C(=O)CS)CC3)nc(N3CCOCC3)n2)cc(OC)c1OC | 30.5 µM | 43.2 µM | 32.9 µM | 32.9 µM | 
32 | COC(=O)Nc1nc2cc(C(=O)c3cccs3)ccc2[nH]1 [NOCODAZOLE] | 1.5 µM |  | 1.6 µM | 1.1 µM | Activity [5]: Active; inhibition [6]: Active; inhibition [7]: Active; IC50 [8]: 0.8 µM; inhibition [9]: Active
33 | COc1cc(Nc2nc(C3=CCN(C(=O)c4ccc([N+](=O)[O-])o4)CC3)nc(N3CCOCC3)n2)cc(OC)c1OC | 11.7 µM | 10.5 µM | 12.3 µM | 9.6 µM | Activity [10]: Active; IC50 [8]: 5.2 µM; inhibition [11]: Active; inhibition [12]: Active; inhibition [13]: Active
34 | COc1cc(Nc2nc(C3=CCN(S(=O)(=O)c4ccc(Br)cc4)CC3)nc(N3CCOCC3)n2)cc(OC)c1OC | 32.5 µM | 43.6 µM | 30.6 µM | 40.4 µM | 
35 | COc1ccc(/C=C\c2cc(OC)c(OC)c(OC)c2)cc1O [COMBRETASTATIN A4] | 4.2 µM | 5.3 µM | 5.8 µM | 4.3 µM | 
36 | COc1cc(Nc2nc(C3=CCN(C(=O)N4CCN(C)CC4)CC3)nc(N3CCOCC3)n2)cc(OC)c1OC | 40.8 µM | 34.6 µM | 40.2 µM | 34.9 µM | 
37 | COc1cc(Nc2nc(C3=CCN(S(=O)(=O)c4ccc(C(C)=O)cc4)CC3)nc(N3CCOCC3)n2)cc(OC)c1OC | 32.1 µM | 32 µM | 45 µM | 36.5 µM | 
38 | COc1cc(Nc2nc(C3=CCN(C(=O)Cc4c[nH]c5ccccc45)CC3)nc(N3CCOCC3)n2)cc(OC)c1OC | 29.8 µM | 43.9 µM | 33.2 µM | 32 µM | 
39 | COc1cc(Nc2nc(C3=CCN(C(=O)c4ccco4)CC3)nc(N3CCOCC3)n2)cc(OC)c1OC | 32 µM | 51 µM | 45 µM | 37.1 µM | 
